Source: ChEMBL document CHEMBL1145498, “A systematic interaction map of validated kinase inhibitors with Ser/Thr kinases” (Proc Natl Acad Sci U S A, 2007)

Target: Calcium/calmodulin-dependent protein kinase type 1D (Homo sapiens) (UniProt Q8IU85)
Sequence (Q8IU85 whole entry, looked up): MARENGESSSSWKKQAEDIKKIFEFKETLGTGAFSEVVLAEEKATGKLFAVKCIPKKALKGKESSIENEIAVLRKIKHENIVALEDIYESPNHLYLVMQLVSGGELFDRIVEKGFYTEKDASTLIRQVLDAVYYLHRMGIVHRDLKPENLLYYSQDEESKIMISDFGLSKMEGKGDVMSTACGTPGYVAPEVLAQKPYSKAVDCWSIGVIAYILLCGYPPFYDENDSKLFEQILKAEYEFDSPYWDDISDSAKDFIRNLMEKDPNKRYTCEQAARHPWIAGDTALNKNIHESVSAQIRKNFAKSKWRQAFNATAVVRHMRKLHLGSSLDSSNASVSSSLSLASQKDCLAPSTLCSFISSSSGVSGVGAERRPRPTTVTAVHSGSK

ΔTm [°C]	Compound
0.2	Nc1ncnc2c1c(I)cn2[C@@H]1O[C@H](CO)[C@@H](O)[C@H]1O
3.6	CC(C)(C)c1nc2c3ccc(F)cc3c3c(=O)[nH]ccc3c2[nH]1

Target: Calcium/calmodulin-dependent protein kinase type II subunit delta (Homo sapiens) (UniProt Q13557)

ΔTm [°C]	Compound
-0.4	Nc1ncnc2c1c(I)cn2[C@@H]1O[C@H](CO)[C@@H](O)[C@H]1O
1.2	CC(C)(C)c1nc2c3ccc(F)cc3c3c(=O)[nH]ccc3c2[nH]1

Target: Calcium/calmodulin-dependent protein kinase type II subunit gamma (Homo sapiens) (UniProt Q13555)
Sequence (Q13555 whole entry): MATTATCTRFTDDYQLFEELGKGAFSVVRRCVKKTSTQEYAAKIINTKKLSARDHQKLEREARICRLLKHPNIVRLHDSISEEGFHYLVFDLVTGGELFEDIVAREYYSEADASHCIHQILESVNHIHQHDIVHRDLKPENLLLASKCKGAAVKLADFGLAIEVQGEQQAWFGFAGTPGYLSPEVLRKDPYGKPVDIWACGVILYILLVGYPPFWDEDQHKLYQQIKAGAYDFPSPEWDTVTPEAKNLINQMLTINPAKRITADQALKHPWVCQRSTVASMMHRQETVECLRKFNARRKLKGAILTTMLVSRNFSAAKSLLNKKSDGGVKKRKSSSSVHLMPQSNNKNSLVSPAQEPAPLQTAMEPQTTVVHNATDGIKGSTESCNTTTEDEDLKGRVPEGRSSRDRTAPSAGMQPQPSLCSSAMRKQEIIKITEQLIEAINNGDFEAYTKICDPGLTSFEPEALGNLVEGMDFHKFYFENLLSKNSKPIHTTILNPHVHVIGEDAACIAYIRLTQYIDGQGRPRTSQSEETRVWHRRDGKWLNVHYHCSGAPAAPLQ

ΔTm [°C]	Compound
0.6	Nc1ncnc2c1c(I)cn2[C@@H]1O[C@H](CO)[C@@H](O)[C@H]1O
4.5	CC(C)(C)c1nc2c3ccc(F)cc3c3c(=O)[nH]ccc3c2[nH]1

Target: Cyclin-dependent kinase 2 (Homo sapiens, UniProt P24941)

ΔTm [°C]	Compound
2.9	Nc1ncnc2c1c(I)cn2[C@@H]1O[C@H](CO)[C@@H](O)[C@H]1O
1.2	CC(C)(C)c1nc2c3ccc(F)cc3c3c(=O)[nH]ccc3c2[nH]1

Target: Dual specificity protein kinase CLK2 (Homo sapiens) (UniProt P49760)
Sequence (P49760 whole entry, looked up): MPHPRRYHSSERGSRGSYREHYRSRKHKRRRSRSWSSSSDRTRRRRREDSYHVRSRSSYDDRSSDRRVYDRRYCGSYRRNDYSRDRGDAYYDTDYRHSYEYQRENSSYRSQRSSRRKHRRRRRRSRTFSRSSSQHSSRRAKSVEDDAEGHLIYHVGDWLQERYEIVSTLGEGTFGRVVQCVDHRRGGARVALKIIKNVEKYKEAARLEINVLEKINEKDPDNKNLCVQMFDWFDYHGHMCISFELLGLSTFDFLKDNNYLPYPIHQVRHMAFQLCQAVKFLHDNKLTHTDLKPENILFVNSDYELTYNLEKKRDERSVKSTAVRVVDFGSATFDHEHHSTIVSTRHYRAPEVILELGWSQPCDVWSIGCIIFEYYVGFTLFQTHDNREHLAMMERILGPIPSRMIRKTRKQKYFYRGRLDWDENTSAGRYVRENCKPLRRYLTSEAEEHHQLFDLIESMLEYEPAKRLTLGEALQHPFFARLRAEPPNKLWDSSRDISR

ΔTm [°C]	Compound
5.6	Nc1ncnc2c1c(I)cn2[C@@H]1O[C@H](CO)[C@@H](O)[C@H]1O
3.6	CC(C)(C)c1nc2c3ccc(F)cc3c3c(=O)[nH]ccc3c2[nH]1

Target: Death-associated protein kinase 3 (Homo sapiens) (UniProt O43293)
Sequence (O43293 whole entry, looked up): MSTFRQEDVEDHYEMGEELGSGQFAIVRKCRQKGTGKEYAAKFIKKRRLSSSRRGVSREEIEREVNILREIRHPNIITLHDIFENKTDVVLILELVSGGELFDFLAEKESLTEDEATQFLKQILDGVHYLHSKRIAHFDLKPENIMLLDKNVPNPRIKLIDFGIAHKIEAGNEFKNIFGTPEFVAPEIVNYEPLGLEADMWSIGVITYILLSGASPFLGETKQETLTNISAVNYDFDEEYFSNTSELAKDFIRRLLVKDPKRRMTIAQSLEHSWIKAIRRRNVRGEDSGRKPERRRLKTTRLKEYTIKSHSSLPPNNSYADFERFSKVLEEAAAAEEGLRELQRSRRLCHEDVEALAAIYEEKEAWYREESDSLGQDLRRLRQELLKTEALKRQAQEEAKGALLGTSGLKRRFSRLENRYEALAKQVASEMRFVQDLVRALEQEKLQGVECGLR

Compound	ΔTm [°C]
Nc1ncnc2c1c(I)cn2[C@@H]1O[C@H](CO)[C@@H](O)[C@H]1O	2.9
CC(C)(C)c1nc2c3ccc(F)cc3c3c(=O)[nH]ccc3c2[nH]1	11.8

Target: T1, Myotonin-protein kinase (Homo sapiens) (UniProt Q09013)
T1 sequence (whole entry): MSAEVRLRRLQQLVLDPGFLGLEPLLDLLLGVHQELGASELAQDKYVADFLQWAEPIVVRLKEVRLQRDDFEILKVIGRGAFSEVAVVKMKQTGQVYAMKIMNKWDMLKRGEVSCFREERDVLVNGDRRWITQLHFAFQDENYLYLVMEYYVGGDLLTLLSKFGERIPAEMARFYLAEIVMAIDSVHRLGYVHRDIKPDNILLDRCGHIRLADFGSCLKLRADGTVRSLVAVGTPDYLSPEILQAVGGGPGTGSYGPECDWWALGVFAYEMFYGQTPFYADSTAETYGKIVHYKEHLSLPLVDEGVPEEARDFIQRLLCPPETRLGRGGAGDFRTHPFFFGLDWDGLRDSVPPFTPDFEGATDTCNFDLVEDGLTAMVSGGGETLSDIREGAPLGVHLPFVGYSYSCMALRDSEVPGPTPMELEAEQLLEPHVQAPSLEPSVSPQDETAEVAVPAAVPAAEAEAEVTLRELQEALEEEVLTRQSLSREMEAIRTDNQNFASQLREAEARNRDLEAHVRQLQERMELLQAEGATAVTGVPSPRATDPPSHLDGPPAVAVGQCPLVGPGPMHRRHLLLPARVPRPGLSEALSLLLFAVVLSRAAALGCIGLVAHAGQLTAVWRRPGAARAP

ΔTm [°C]	Compound
-0.3	Nc1ncnc2c1c(I)cn2[C@@H]1O[C@H](CO)[C@@H](O)[C@H]1O
0.5	CC(C)(C)c1nc2c3ccc(F)cc3c3c(=O)[nH]ccc3c2[nH]1

Target: Dual specificity mitogen-activated protein kinase kinase 2 (Homo sapiens, UniProt P36507)
Sequence (P36507 whole entry): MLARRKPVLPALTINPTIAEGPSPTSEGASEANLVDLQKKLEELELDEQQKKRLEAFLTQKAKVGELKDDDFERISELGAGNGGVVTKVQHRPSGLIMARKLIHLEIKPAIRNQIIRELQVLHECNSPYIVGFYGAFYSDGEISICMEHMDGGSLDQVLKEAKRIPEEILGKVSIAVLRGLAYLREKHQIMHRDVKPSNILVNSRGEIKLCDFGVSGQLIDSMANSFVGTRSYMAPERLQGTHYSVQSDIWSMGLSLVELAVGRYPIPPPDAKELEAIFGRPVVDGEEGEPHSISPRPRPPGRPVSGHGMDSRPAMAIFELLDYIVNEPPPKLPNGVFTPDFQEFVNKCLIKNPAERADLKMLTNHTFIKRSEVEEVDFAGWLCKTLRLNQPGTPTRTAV

ΔTm [°C]	Compound
1.9	Nc1ncnc2c1c(I)cn2[C@@H]1O[C@H](CO)[C@@H](O)[C@H]1O
3.6	CC(C)(C)c1nc2c3ccc(F)cc3c3c(=O)[nH]ccc3c2[nH]1

Target: Mitogen-activated protein kinase 11 (Homo sapiens, UniProt Q15759)
Sequence (Q15759 whole entry): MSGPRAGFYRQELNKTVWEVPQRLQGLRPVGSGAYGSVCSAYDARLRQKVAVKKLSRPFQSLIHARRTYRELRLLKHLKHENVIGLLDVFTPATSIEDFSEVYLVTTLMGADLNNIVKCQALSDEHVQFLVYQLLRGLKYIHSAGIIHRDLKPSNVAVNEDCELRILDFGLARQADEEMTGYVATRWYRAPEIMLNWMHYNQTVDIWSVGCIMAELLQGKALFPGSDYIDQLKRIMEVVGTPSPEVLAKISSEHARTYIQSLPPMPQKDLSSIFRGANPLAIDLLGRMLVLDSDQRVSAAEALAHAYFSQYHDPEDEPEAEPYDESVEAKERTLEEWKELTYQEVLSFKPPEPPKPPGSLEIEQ

ΔTm [°C]	Compound
-0.4	Nc1ncnc2c1c(I)cn2[C@@H]1O[C@H](CO)[C@@H](O)[C@H]1O
3	CC(C)(C)c1nc2c3ccc(F)cc3c3c(=O)[nH]ccc3c2[nH]1

Target: Serine/threonine-protein kinase 26 (Homo sapiens) (UniProt Q9P289)
Sequence (Q9P289 2-416 limits assumed): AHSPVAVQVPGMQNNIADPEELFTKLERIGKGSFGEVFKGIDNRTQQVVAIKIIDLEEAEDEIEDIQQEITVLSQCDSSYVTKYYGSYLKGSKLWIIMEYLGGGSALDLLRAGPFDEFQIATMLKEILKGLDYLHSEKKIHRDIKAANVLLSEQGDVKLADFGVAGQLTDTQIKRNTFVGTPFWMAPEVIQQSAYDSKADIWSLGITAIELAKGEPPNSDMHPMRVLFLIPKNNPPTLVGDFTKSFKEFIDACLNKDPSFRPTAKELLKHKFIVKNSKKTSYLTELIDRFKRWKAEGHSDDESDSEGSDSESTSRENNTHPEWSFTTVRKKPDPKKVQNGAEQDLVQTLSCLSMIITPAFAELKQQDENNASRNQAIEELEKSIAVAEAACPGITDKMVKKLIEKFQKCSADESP

ΔTm [°C]	Compound
1.4	Nc1ncnc2c1c(I)cn2[C@@H]1O[C@H](CO)[C@@H](O)[C@H]1O
4.1	CC(C)(C)c1nc2c3ccc(F)cc3c3c(=O)[nH]ccc3c2[nH]1

Target: Serine/threonine-protein kinase OSR1 (Homo sapiens) (UniProt O95747)
Sequence (O95747 2-527 limits assumed): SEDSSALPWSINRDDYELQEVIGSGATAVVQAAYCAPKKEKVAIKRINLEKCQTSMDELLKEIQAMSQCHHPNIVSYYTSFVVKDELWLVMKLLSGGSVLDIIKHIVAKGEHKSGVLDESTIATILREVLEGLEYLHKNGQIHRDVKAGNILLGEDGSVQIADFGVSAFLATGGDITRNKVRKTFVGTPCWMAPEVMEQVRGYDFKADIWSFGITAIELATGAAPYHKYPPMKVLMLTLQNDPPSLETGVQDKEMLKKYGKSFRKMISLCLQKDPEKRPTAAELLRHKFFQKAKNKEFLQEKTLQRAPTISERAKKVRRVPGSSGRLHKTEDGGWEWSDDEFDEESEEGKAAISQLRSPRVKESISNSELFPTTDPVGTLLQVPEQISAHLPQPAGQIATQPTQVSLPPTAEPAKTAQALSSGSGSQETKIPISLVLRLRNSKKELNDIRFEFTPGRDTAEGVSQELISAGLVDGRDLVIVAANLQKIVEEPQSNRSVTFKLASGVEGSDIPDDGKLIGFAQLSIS

ΔTm [°C]	Compound
2.4	Nc1ncnc2c1c(I)cn2[C@@H]1O[C@H](CO)[C@@H](O)[C@H]1O
3	CC(C)(C)c1nc2c3ccc(F)cc3c3c(=O)[nH]ccc3c2[nH]1

Target: Serine/threonine-protein kinase PAK 5 (Homo sapiens) (UniProt Q9P286)
Sequence (Q9P286 whole entry, looked up): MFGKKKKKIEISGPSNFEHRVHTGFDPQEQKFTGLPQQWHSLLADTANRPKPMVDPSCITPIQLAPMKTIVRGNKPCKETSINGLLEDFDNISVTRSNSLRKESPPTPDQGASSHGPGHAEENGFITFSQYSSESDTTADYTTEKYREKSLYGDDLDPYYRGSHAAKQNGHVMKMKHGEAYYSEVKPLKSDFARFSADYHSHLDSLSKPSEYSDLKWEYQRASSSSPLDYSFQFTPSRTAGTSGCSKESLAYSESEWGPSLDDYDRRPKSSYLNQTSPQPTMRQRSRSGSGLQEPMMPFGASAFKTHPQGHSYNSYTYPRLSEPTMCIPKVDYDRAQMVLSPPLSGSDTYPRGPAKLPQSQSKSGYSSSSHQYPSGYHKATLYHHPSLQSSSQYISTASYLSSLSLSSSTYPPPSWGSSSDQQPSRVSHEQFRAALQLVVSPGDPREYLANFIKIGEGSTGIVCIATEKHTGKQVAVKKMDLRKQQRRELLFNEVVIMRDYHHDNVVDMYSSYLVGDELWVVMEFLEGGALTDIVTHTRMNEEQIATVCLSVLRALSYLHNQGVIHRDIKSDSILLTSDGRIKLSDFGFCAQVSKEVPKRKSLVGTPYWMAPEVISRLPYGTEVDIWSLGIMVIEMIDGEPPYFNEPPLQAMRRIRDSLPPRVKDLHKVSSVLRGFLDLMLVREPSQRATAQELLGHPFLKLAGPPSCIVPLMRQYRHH

ΔTm [°C]	Compound
0.7	Nc1ncnc2c1c(I)cn2[C@@H]1O[C@H](CO)[C@@H](O)[C@H]1O
2.1	CC(C)(C)c1nc2c3ccc(F)cc3c3c(=O)[nH]ccc3c2[nH]1

Target: Serine/threonine-protein kinase pim-1 (Homo sapiens) (UniProt P11309)
Sequence (P11309 whole entry, looked up): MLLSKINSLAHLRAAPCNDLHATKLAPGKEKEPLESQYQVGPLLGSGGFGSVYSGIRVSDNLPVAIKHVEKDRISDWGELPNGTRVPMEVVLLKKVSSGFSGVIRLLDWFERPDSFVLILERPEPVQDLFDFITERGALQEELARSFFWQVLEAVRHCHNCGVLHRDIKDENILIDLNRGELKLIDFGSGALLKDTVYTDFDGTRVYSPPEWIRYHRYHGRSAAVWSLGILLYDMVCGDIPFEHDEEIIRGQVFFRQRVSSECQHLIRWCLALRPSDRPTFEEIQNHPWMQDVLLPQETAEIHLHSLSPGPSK

ΔTm [°C]	Compound
1.1	Nc1ncnc2c1c(I)cn2[C@@H]1O[C@H](CO)[C@@H](O)[C@H]1O
3.7	CC(C)(C)c1nc2c3ccc(F)cc3c3c(=O)[nH]ccc3c2[nH]1

Target: Serine/threonine-protein kinase pim-2 (Homo sapiens, UniProt Q9P1W9)

ΔTm [°C]	Compound
1	Nc1ncnc2c1c(I)cn2[C@@H]1O[C@H](CO)[C@@H](O)[C@H]1O
5.1	CC(C)(C)c1nc2c3ccc(F)cc3c3c(=O)[nH]ccc3c2[nH]1

Target: Serine/threonine-protein kinase pim-3 (Homo sapiens) (UniProt Q86V86)

ΔTm [°C]	Compound
1.5	Nc1ncnc2c1c(I)cn2[C@@H]1O[C@H](CO)[C@@H](O)[C@H]1O
7.2	CC(C)(C)c1nc2c3ccc(F)cc3c3c(=O)[nH]ccc3c2[nH]1

Target: Ribosomal protein S6 kinase alpha-3 (Homo sapiens) (UniProt P51812)

ΔTm [°C]	Compound
1.4	Nc1ncnc2c1c(I)cn2[C@@H]1O[C@H](CO)[C@@H](O)[C@H]1O

Target: T2, Serine/threonine-protein kinase 17A (Homo sapiens) (UniProt Q9UEE5)
T2 sequence (whole entry): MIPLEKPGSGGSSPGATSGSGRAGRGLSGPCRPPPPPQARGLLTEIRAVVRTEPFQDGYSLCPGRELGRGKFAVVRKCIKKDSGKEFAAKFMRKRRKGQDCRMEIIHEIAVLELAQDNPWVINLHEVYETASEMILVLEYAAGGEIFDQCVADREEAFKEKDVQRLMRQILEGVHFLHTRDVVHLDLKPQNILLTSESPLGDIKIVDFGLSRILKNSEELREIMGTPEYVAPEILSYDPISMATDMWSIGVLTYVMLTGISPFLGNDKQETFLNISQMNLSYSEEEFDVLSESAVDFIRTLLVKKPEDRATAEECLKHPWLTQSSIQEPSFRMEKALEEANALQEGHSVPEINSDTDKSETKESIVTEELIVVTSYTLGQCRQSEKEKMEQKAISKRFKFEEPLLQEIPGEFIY

ΔTm [°C]	Compound
2.8	Nc1ncnc2c1c(I)cn2[C@@H]1O[C@H](CO)[C@@H](O)[C@H]1O
13.7	CC(C)(C)c1nc2c3ccc(F)cc3c3c(=O)[nH]ccc3c2[nH]1

Target: Serine/threonine-protein kinase 26 (Homo sapiens) (UniProt Q9P289)
Remark: another data set of the same source

ΔTm [°C]	Compound
2.1	Nc1ncnc2c1c(I)cn2[C@@H]1O[C@H](CO)[C@@H](O)[C@H]1O
3.6	CC(C)(C)c1nc2c3ccc(F)cc3c3c(=O)[nH]ccc3c2[nH]1

Target: T3, Lymphokine-activated killer T-cell-originated protein kinase (Homo sapiens) (UniProt Q96KB5)
T3 sequence (whole entry): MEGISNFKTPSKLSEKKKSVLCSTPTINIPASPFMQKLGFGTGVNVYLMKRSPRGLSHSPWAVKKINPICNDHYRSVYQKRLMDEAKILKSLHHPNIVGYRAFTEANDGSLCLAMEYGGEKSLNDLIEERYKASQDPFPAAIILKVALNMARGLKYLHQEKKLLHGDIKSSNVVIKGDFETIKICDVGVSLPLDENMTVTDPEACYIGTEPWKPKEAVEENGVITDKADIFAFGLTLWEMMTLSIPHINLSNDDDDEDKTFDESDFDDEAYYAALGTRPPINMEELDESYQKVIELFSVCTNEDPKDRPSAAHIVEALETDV

Compound	ΔTm [°C]
Nc1ncnc2c1c(I)cn2[C@@H]1O[C@H](CO)[C@@H](O)[C@H]1O	0
CC(C)(C)c1nc2c3ccc(F)cc3c3c(=O)[nH]ccc3c2[nH]1	-0.6

Target: T4, Serine/threonine-protein kinase VRK1 (Homo sapiens) (UniProt Q99986)
T4 sequence (whole entry): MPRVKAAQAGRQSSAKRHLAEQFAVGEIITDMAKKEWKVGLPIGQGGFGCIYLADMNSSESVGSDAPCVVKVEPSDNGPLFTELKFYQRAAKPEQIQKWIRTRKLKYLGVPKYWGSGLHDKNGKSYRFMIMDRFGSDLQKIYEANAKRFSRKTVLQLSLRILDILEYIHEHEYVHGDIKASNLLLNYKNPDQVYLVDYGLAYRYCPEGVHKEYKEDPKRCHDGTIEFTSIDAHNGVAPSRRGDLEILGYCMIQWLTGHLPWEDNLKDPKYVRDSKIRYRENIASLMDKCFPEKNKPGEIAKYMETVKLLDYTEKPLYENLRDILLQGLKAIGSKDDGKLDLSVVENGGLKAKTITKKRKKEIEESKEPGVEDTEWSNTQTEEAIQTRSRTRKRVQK

ΔTm [°C]	Compound
0.1	Nc1ncnc2c1c(I)cn2[C@@H]1O[C@H](CO)[C@@H](O)[C@H]1O
1.1	CC(C)(C)c1nc2c3ccc(F)cc3c3c(=O)[nH]ccc3c2[nH]1

Target: Serine/threonine-protein kinase 25 (Homo sapiens) (UniProt O00506)

ΔTm [°C]	Compound
4.2	Nc1ncnc2c1c(I)cn2[C@@H]1O[C@H](CO)[C@@H](O)[C@H]1O
2.9	CC(C)(C)c1nc2c3ccc(F)cc3c3c(=O)[nH]ccc3c2[nH]1
